Reference: patent EP4722207A1, “OXOISOINDOLINYL-SUBSTITUTED TETRAHYDROPYRIMIDINEDIONE DERIVATIVE AND USE THEREOF” (Gluetacs Therapeutics (Shanghai) Co., Ltd., priority 2023, dated 2024)

How the values were obtained:
Format in all cases: cell-based
Conditions in all cases: compounds at 50 nM and 500 nM, 24 hours
WEE1 = target: T1, WEE1 (Homo sapiens, UniProt P30291+Q96SW2); assay: Western-blot assay, substrate protein degradation in hPBMCs: WEE1
T1 construct: effects of the compounds of the present disclosure on the expression of target proteins in cells; endogenous in cells; host or cells: human PBMCs (hPBMCs)

IKZF1 = target: T2, IKZF1 (Homo sapiens, UniProt Q13422+Q96SW2); assay: Western-blot assay, substrate protein degradation in hPBMCs: IKZF1
T2 construct: effects of the compounds of the present disclosure on the expression of target proteins in cells; endogenous in cells; host or cells: human PBMCs (hPBMCs)
T2 sequence (Q13422 whole entry): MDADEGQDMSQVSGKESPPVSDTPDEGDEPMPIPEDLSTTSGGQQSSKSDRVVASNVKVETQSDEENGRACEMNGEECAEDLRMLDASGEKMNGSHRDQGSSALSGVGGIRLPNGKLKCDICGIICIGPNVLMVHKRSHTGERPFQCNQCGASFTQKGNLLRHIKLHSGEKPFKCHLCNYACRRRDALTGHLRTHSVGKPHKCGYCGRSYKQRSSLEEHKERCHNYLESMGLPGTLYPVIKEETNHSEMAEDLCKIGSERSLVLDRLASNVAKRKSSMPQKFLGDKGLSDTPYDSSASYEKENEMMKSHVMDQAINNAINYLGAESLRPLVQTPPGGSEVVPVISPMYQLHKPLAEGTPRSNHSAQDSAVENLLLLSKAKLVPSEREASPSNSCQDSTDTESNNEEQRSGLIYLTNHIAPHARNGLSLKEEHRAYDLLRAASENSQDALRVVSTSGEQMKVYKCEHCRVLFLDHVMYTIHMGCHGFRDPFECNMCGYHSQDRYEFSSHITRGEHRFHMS
T2 sequence (Q96SW2 whole entry): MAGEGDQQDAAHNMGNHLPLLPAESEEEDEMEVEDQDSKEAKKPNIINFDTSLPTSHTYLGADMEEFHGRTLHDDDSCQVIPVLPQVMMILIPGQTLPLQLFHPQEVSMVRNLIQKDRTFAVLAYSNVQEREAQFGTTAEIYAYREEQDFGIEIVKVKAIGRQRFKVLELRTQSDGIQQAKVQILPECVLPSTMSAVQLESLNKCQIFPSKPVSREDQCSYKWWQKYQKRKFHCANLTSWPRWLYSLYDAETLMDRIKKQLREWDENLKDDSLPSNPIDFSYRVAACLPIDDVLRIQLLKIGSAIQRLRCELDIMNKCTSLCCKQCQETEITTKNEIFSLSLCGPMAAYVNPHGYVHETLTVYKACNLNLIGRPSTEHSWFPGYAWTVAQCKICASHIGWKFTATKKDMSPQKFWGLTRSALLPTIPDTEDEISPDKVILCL
T2 sequence (Q16531 whole entry partner): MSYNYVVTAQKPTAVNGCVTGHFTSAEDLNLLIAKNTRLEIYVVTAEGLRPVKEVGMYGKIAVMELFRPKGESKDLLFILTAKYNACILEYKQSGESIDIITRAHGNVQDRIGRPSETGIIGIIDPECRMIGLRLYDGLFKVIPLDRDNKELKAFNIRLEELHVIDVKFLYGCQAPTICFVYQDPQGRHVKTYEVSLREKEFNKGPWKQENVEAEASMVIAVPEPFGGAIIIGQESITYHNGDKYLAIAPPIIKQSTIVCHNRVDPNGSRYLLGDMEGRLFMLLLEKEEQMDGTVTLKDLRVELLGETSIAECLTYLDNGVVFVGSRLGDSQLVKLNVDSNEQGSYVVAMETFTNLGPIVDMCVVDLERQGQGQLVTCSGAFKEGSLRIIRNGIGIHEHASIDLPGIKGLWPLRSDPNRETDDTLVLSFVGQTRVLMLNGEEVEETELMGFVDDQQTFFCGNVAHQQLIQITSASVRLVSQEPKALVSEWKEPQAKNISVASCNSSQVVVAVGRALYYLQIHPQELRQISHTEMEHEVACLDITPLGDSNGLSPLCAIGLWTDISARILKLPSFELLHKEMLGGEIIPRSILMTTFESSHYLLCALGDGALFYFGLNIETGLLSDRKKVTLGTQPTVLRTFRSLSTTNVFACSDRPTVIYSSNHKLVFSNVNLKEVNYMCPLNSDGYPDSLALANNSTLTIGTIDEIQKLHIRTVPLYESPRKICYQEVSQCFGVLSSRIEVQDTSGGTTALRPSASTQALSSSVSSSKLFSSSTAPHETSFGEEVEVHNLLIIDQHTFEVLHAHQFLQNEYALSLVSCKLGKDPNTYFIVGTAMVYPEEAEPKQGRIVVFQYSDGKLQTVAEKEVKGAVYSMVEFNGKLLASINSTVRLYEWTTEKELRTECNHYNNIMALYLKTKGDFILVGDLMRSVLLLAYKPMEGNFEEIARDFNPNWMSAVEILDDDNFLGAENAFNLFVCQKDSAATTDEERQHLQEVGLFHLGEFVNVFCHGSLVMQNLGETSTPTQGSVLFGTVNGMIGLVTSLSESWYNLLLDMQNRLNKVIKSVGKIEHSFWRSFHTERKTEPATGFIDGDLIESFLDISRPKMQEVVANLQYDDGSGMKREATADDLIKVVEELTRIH

IKZF2 = target: T3, IKZF2 (Homo sapiens, UniProt Q96SW2+Q9UKS7); assay: Western-blot assay, substrate protein degradation in hPBMCs: IKZF2
T3 construct: effects of the compounds of the present disclosure on the expression of target proteins in cells; endogenous in cells; host or cells: human PBMCs (hPBMCs)
T3 sequence (Q9UKS7 whole entry): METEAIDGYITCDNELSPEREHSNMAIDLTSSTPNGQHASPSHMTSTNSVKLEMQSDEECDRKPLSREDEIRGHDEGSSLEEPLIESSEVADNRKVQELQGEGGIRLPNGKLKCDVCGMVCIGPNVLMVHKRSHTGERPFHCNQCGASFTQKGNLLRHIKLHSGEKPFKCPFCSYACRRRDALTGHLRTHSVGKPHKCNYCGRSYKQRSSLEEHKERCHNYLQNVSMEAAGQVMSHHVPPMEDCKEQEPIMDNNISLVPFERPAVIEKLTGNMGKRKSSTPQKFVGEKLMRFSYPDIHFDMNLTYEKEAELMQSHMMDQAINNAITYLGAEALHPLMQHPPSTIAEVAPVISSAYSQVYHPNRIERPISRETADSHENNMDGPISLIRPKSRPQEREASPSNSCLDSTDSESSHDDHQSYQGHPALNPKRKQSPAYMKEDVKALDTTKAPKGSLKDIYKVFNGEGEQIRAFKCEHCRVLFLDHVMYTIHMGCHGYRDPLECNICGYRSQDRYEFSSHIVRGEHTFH
T3 sequence (Q96SW2 whole entry): as the sequence (Q96SW2 whole entry) above
T3 sequence (Q16531 whole entry partner): as the sequence (Q16531 whole entry partner) above

IKZF3 = target: T4, IKZF3 (Homo sapiens, UniProt Q96SW2+Q9UKT9); assay: Western-blot assay, substrate protein degradation in hPBMCs: IKZF3
T4 construct: effects of the compounds of the present disclosure on the expression of target proteins in cells; endogenous in cells; host or cells: human PBMCs (hPBMCs)
T4 sequence (Q9UKT9 whole entry): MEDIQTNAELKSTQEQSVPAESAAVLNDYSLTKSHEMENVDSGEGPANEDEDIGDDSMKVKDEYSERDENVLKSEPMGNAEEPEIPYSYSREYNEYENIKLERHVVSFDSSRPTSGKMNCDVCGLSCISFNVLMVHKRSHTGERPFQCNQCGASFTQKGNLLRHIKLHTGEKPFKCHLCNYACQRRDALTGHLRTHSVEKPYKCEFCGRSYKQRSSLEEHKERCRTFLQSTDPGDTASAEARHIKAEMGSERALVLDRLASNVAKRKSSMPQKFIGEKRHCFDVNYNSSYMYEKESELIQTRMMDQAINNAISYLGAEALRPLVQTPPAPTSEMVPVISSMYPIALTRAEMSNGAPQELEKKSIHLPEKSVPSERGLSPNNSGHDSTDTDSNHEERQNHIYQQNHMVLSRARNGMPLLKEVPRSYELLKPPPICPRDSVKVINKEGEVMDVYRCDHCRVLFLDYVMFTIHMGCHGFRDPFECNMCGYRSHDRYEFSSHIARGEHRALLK
T4 sequence (Q96SW2 whole entry): as the sequence (Q96SW2 whole entry) above
T4 sequence (Q16531 whole entry partner): as the sequence (Q16531 whole entry partner) above

CK1α = target: T5, CK1α (Homo sapiens, UniProt P48729+Q96SW2); assay: Western-blot assay, substrate protein degradation in hPBMCs: CK1α
T5 construct: effects of the compounds of the present disclosure on the expression of target proteins in cells; endogenous in cells; host or cells: human PBMCs (hPBMCs)
T5 sequence (P48729 whole entry): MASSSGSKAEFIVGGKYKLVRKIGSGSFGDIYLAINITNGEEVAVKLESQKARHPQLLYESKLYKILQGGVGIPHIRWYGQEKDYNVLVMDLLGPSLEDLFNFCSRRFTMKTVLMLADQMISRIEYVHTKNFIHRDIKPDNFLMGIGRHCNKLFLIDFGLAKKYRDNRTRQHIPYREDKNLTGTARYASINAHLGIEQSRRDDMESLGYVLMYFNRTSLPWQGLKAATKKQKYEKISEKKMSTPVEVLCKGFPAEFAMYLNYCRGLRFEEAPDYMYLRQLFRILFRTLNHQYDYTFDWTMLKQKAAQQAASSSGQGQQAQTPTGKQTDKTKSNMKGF
T5 sequence (Q96SW2 whole entry): as the sequence (Q96SW2 whole entry) above
T5 sequence (Q16531 whole entry partner): as the sequence (Q16531 whole entry partner) above

GSPT1 = target: T6, GSPT1 (Homo sapiens, UniProt P15170+Q96SW2); assay: Western-blot assay, substrate protein degradation in hPBMCs: GSPT1
T6 construct: effects of the compounds of the present disclosure on the expression of target proteins in cells; endogenous in cells; host or cells: human PBMCs (hPBMCs)
T6 sequence (P15170 whole entry): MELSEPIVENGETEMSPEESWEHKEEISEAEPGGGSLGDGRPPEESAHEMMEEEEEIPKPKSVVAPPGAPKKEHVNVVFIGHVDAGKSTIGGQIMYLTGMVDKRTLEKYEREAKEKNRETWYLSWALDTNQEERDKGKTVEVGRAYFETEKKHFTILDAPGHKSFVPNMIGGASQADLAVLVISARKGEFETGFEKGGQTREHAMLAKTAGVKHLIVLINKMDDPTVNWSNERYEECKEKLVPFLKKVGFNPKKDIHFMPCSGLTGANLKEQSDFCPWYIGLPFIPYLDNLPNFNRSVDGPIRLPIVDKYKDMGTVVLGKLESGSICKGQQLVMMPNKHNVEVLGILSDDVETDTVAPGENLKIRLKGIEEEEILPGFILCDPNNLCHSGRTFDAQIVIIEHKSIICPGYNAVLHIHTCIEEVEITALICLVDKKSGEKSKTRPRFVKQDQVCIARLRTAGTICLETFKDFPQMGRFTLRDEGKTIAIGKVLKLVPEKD
T6 sequence (Q96SW2 whole entry): as the sequence (Q96SW2 whole entry) above
T6 sequence (Q16531 whole entry partner): as the sequence (Q16531 whole entry partner) above

SMILES	WEE1 substrate protein remaining % (WEE1)	IKZF1 substrate protein remaining % (IKZF1)	IKZF2 substrate protein remaining % (IKZF2)	IKZF3 substrate protein remaining % (IKZF3)	CK1α substrate protein remaining % (CK1α)	GSPT1 substrate protein remaining % (GSPT1)
O=C1CCN(N2Cc3cc(CN4CCC(c5ccnc(F)c5F)CC4)ccc3C2=O)C(=O)N1 [GT-06396, 1-(5-((4-(2,3-difluoropyridin-4-yl)piperidin-1-yl)methyl)-1-oxoisoindolin-2-yl)dihydropyrimidine-2,4(1H,3H)-dione]	B ("B" is defined as 80%< substrate protein remaining %≤ 100%)	B ("B" is defined as 80%< substrate protein remaining %≤ 100%)	B ("B" is defined as 80%< substrate protein remaining %≤ 100%)	B ("B" is defined as 80%< substrate protein remaining %≤ 100%)	A ("A" is defined as 0% ≤ substrate protein remaining % ≤ 80%)	B ("B" is defined as 80%< substrate protein remaining %≤ 100%)
O=C1CCN(N2Cc3cc(CN4CC=C(c5ccnc(F)c5F)CC4)ccc3C2=O)C(=O)N1 [GT-06397, 1-(5-((2',3'-difluoro-3,6-dihydro-[4,4'-bipyridin]-1(2H)-yl)methyl)-1-oxoisoindolin-2-yl)dihydropyrimidine-2,4(1H,3H)-dione]	A ("A" is defined as 0% ≤ substrate protein remaining % ≤ 80%)	B ("B" is defined as 80%< substrate protein remaining %≤ 100%)	A ("A" is defined as 0% ≤ substrate protein remaining % ≤ 80%)	B ("B" is defined as 80%< substrate protein remaining %≤ 100%)	B ("B" is defined as 80%< substrate protein remaining %≤ 100%)	A ("A" is defined as 0% ≤ substrate protein remaining % ≤ 80%)
CC1CN(Cc2ccc3c(c2)C(=O)N(N2CCC(=O)NC2=O)C3=O)CC(C)N1C(c1ccccc1)c1ccccc1 (stereo not drawn) [GT-06430, 5-((4-benzhydryl-3,5-dimethylpiperazin-1-yl)methyl)-2-(2,4-dioxotetrahydropyrimidin-1(2H)-yl)isoindoline-1,3-dione]	A ("A" is defined as 0% ≤ substrate protein remaining % ≤ 80%)	A ("A" is defined as 0% ≤ substrate protein remaining % ≤ 80%)	B ("B" is defined as 80%< substrate protein remaining %≤ 100%)	A ("A" is defined as 0% ≤ substrate protein remaining % ≤ 80%)	B ("B" is defined as 80%< substrate protein remaining %≤ 100%)	A ("A" is defined as 0% ≤ substrate protein remaining % ≤ 80%)
CC1CN(Cc2ccc3c(c2)CN(N2CCC(=O)NC2=O)C3=O)CC(C)N1C(c1ccccc1)c1ccccc1 (stereo not drawn) [GT-06431, 1-(5-((4-benzhydryl-3,5-dimethylpiperazin-1-yl)methyl)-1-oxoisoindolin-2-yl)dihydropyrimidine-2,4(1H,3H)-dione]	A ("A" is defined as 0% ≤ substrate protein remaining % ≤ 80%)	A ("A" is defined as 0% ≤ substrate protein remaining % ≤ 80%)	A ("A" is defined as 0% ≤ substrate protein remaining % ≤ 80%)	B ("B" is defined as 80%< substrate protein remaining %≤ 100%)	B ("B" is defined as 80%< substrate protein remaining %≤ 100%)	A ("A" is defined as 0% ≤ substrate protein remaining % ≤ 80%)
O=C1CCN(N2C(=O)c3ccc(CN4CCN(Cc5ccccc5-c5ccc(Cl)cc5)CC4)cc3C2=O)C(=O)N1 [GT-06432, 5-((4-((4'-chloro-[1,1'-biphenyl]-2-yl)methyl)piperazin-1-yl)methyl)-2-(2,4-dioxotetrahydropyrimidin-1(2H)-yl)isoindoline-1,3-dione]	A ("A" is defined as 0% ≤ substrate protein remaining % ≤ 80%)	A ("A" is defined as 0% ≤ substrate protein remaining % ≤ 80%)	B ("B" is defined as 80%< substrate protein remaining %≤ 100%)	B ("B" is defined as 80%< substrate protein remaining %≤ 100%)	B ("B" is defined as 80%< substrate protein remaining %≤ 100%)	A ("A" is defined as 0% ≤ substrate protein remaining % ≤ 80%)
O=C1CCN(N2Cc3cc(CN4CCN(Cc5ccccc5-c5ccc(Cl)cc5)CC4)ccc3C2=O)C(=O)N1 [GT-06433, 1-(5-((4-((4'-chloro-[1,1'-biphenyl]-2-yl)methyl)piperazin-1-yl)methyl)-1-oxoisoindolin-2-yl)dihydropyrimidine-2,4(1H,3H)-dione]	A ("A" is defined as 0% ≤ substrate protein remaining % ≤ 80%)	A ("A" is defined as 0% ≤ substrate protein remaining % ≤ 80%)	A ("A" is defined as 0% ≤ substrate protein remaining % ≤ 80%)	A ("A" is defined as 0% ≤ substrate protein remaining % ≤ 80%)	B ("B" is defined as 80%< substrate protein remaining %≤ 100%)	A ("A" is defined as 0% ≤ substrate protein remaining % ≤ 80%)
Cc1ccsc1C1=CCN(Cc2ccc3c(c2)C(=O)N(N2CCC(=O)NC2=O)C3=O)CC1 [GT-06434, 2-(2,4-dioxotetrahydropyrimidin-1(2H)-yl)-5-((4-(3-methylthiophen-2-yl)-3,6-dihydropyridin-1(2H)-yl)methyl)isoindoline-1,3-dione]	A ("A" is defined as 0% ≤ substrate protein remaining % ≤ 80%)	B ("B" is defined as 80%< substrate protein remaining %≤ 100%)	A ("A" is defined as 0% ≤ substrate protein remaining % ≤ 80%)	A ("A" is defined as 0% ≤ substrate protein remaining % ≤ 80%)	B ("B" is defined as 80%< substrate protein remaining %≤ 100%)	A ("A" is defined as 0% ≤ substrate protein remaining % ≤ 80%)
O=C1CCN(N2C(=O)c3ccc(CN4CC=C(c5ccsc5)CC4)cc3C2=O)C(=O)N1 [GT-06435, 2-(2,4-dioxotetrahydropyrimidin-1(2H)-yl)-5-((4-(thiophen-3-yl)-3,6-dihydropyridin-1(2H)-yl)methyl)isoindoline-1,3-dione]	A ("A" is defined as 0% ≤ substrate protein remaining % ≤ 80%)	B ("B" is defined as 80%< substrate protein remaining %≤ 100%)	A ("A" is defined as 0% ≤ substrate protein remaining % ≤ 80%)	A ("A" is defined as 0% ≤ substrate protein remaining % ≤ 80%)	B ("B" is defined as 80%< substrate protein remaining %≤ 100%)	A ("A" is defined as 0% ≤ substrate protein remaining % ≤ 80%)
C[C@@H]1CN(C(c2ccccc2)c2ccccc2)CCN1Cc1ccc2c(c1)CN(N1CCC(=O)NC1=O)C2=O [GT-06448, (R)-1-(5-((4-benzhydryl-2-methylpiperazin-1-yl)methyl)-1-oxoisoindolin-2-yl)dihydropyrimidine-2,4(1H,3H)-dione]	B ("B" is defined as 80%< substrate protein remaining %≤ 100%)	B ("B" is defined as 80%< substrate protein remaining %≤ 100%)	A ("A" is defined as 0% ≤ substrate protein remaining % ≤ 80%)	A ("A" is defined as 0% ≤ substrate protein remaining % ≤ 80%)	B ("B" is defined as 80%< substrate protein remaining %≤ 100%)	A ("A" is defined as 0% ≤ substrate protein remaining % ≤ 80%)
